In ChEMBL document CHEMBL4819020, “Discovery of [1,2,4]triazolo[1,5-a]pyrimidines derivatives as potential anticancer agents” (Eur J Med Chem, 2021):

How the values were obtained:
MCF7 = experiment: Antiproliferative activity against human MCF7 cells assessed as inhibition of cell proliferation measured after 72 hrs by MTT assay; format: functional, cell-based; settings: MCF7, 72 h
GES1 = experiment: Antiproliferative activity against human GES1 cells assessed as inhibition of cell proliferation measured after 72 hrs by MTT assay; format: cell-based; settings: GES1, 72 h
MGC-803 = experiment: Antiproliferative activity against human MGC-803 cells assessed as inhibition of cell proliferation measured after 72 hrs by MTT assay; format: functional, cell-based; settings: MGC-803, 72 h
PC-9 = experiment: Antiproliferative activity against human PC-9 cells assessed as inhibition of cell proliferation measured after 72 hrs by MTT assay; format: functional, cell-based; settings: PC-9, 72 h

Row | SMILES | IC50 (MCF7) | IC50 (GES1) | IC50 (MGC-803) | IC50 (PC-9)
1 | Cc1cc(Nc2cc(-c3ccccc3)[nH]n2)n2nc(SCc3csc4ccccc34)nc2n1 | 3.47 µM | 29.2 µM | 2.28 µM | 4.42 µM
2 | Cc1cc(Nc2cc(-c3ccccc3)[nH]n2)n2nc(SCC3CCCCC3)nc2n1 | > 50 µM | > 50 µM | 12.6 µM | > 50 µM
3 | Cc1cc(Nc2cc(-c3ccccc3)[nH]n2)n2nc(SCc3ccccc3Br)nc2n1 | 3.02 µM | 41.1 µM | 3.65 µM | 5.63 µM
4 | Cc1cc(Nc2cc(-c3ccccc3)[nH]n2)n2nc(SCC3CC3)nc2n1 | > 50 µM | > 50 µM | 16.1 µM | > 50 µM
5 | Cc1cc(Nc2ccn(Cc3cccc4ccccc34)n2)n2nc(SCc3ccc(Br)cc3)nc2n1 | 4.31 µM | 30 µM | 3.24 µM | 5.66 µM
6 | C=CCSc1nc2nc(C)cc(Nc3cc(-c4ccccc4)[nH]n3)n2n1 | > 50 µM | > 50 µM | 17.2 µM | > 50 µM
7 | Cc1cc(Nc2cc(C(C)(C)C)[nH]n2)n2nc(SCc3ccc(Br)cc3)nc2n1 | 7.29 µM | > 50 µM | 5.62 µM | 12.4 µM
8 | COc1ccc(Cn2ccc(Nc3cc(C)nc4nc(SCc5ccc(Br)cc5)nn34)n2)cc1 | 14.6 µM | > 50 µM | 12.6 µM | > 50 µM
9 | Cc1cc(Nc2ccn(Cc3ccccc3)n2)n2nc(SCc3ccc(Br)cc3)nc2n1 | 15.8 µM | 44.4 µM | 4.72 µM | > 50 µM
10 | Cc1cc(Nc2cc(-c3ccccc3)[nH]n2)n2nc(SCc3ccc([N+](=O)[O-])cc3)nc2n1 | 5.06 µM | 43.6 µM | 4.25 µM | 7.98 µM
11 | CCCCCc1c(C)nc2nc(SCc3ccc(Cl)cc3)nn2c1Nc1cc(-c2ccccc2)[nH]n1 | 6.39 µM | > 50 µM | 7.14 µM | > 50 µM
12 | Cc1cc(Nc2cc(-c3ccc(F)cc3)[nH]n2)n2nc(SCc3ccc(Br)cc3)nc2n1 | 4.57 µM | 34.1 µM | 2.21 µM | 6.21 µM
13 | Cc1ccc(CSc2nc3nc(C)cc(Nc4cc(-c5ccccc5)[nH]n4)n3n2)cc1 | 7.29 µM | 36.2 µM | 6.96 µM | 7.31 µM
14 | Cc1cc(Nc2cc(-c3ccccc3)[nH]n2)n2nc(SCCCc3ccccc3)nc2n1 | 3.9 µM | 40.2 µM | 6.51 µM | 5.03 µM
15 | Cc1cc(Nc2cc(-c3ccccc3)[nH]n2)n2nc(SCc3cccc4ccccc34)nc2n1 | 7.56 µM | 36.3 µM | 3.12 µM | 3.95 µM
16 | Cc1cc(Nc2cc(-c3ccccc3)[nH]n2)n2nc(SCCc3ccccc3)nc2n1 | 2.7 µM | 37.4 µM | 5.62 µM | 4.93 µM
17 | Cc1cc(Nc2ccn(Cc3ccc(F)cc3)n2)n2nc(SCc3ccc(Br)cc3)nc2n1 | 4.28 µM | 40.5 µM | 3.07 µM | 19.4 µM
18 | Cc1cc(Nc2cc(-c3ccccc3)[nH]n2)n2nc(SCC(=O)c3ccccc3)nc2n1 | 5.24 µM | 33.3 µM | 2.58 µM | 4.45 µM
19 | Cc1cc(Nc2cc(-c3cccs3)[nH]n2)n2nc(SCc3ccc(Br)cc3)nc2n1 | 5.37 µM | 38.7 µM | 3.77 µM | 4.89 µM

Row | SMILES | IC50 (MCF7) | IC50 (GES1) | IC50 (MGC-803) | IC50 (PC-9)
20 | CCCSc1nc2nc(C)cc(Nc3cc(-c4ccccc4)[nH]n3)n2n1 | > 50 µM | > 50 µM | 12.6 µM | > 50 µM
21 | Cc1cc(Nc2cc(-c3ccccc3)[nH]n2)n2nc(SCc3c(Cl)cccc3Cl)nc2n1 | 3.23 µM | 39.6 µM | 5.28 µM | 5.18 µM
22 | Cc1cc(Nc2cc(-c3ccccc3)[nH]n2)n2nc(SCc3cc(=O)oc4c3ccc3ccccc34)nc2n1 | 4.28 µM | 28.6 µM | 2.07 µM | 3.41 µM
23 | Cc1cc(Nc2cc(-c3ccccc3)[nH]n2)n2ncnc2n1 | > 50 µM | > 50 µM | 21.7 µM | > 50 µM
24 | Cc1cc(Nc2cc(-c3ccccc3)[nH]n2)n2nc(SCc3ccc(C(F)(F)F)cc3)nc2n1 | 4.82 µM | 42.7 µM | 3.52 µM | 4.24 µM
25 | Cc1cc(Nc2cc(-c3ccccc3)[nH]n2)n2nc(SCc3nc4ccccc4[nH]3)nc2n1 | 2.73 µM | 27.8 µM | 1.79 µM | 4.84 µM
26 | Cc1cc(Nc2ccn(Cc3ccc(C(F)(F)F)cc3)n2)n2nc(SCc3ccc(Br)cc3)nc2n1 | 2.28 µM | 30.2 µM | 2.59 µM | 5.58 µM
27 | Cc1cc(Nc2ccn(Cc3csc4ccc(Cl)cc34)n2)n2nc(SCc3ccc(Br)cc3)nc2n1 | 2.57 µM | 31.4 µM | 1.57 µM | 4.35 µM
28 | Cc1ccc(Cn2ccc(Nc3cc(C)nc4nc(SCc5ccc(Br)cc5)nn34)n2)cc1 | 11.3 µM | > 50 µM | 7.42 µM | > 50 µM
29 | Cc1cc(Nc2cc(-c3ccccc3)[nH]n2)n2nc(SCc3cccc(Br)c3)nc2n1 | 5.14 µM | > 50 µM | 4.82 µM | 8.9 µM
30 | Cc1cc(Nc2cc(-c3ccccc3)[nH]n2)n2nc(SCc3ccc(Br)cc3)nc2n1 | 2.72 µM | 39.3 µM | 1.11 µM | 4.76 µM
31 | O=c1[nH]cc(F)c(=O)[nH]1 [FLUOROURACIL] | 5.32 µM | 2.45 µM |  | 
32 | Cc1nc2nc(SCc3ccc(Cl)cc3)nn2c(Nc2cc(-c3ccccc3)[nH]n2)c1C | 10.6 µM | 47.2 µM | 9.05 µM | > 50 µM
33 | Cc1cc(Nc2cc(-c3ccc(Cl)cc3)[nH]n2)n2nc(SCc3ccc(Br)cc3)nc2n1 | 3.62 µM | 28.2 µM | 2.78 µM | 4.92 µM
34 | COc1ccc(CSc2nc3nc(C)cc(Nc4cc(-c5ccccc5)[nH]n4)n3n2)cc1 | 4.02 µM | 28.2 µM | 3.17 µM | 8.11 µM
35 | Cc1cc(Nc2cc(-c3ccccc3)[nH]n2)n2nc(SCc3ccc(F)cc3)nc2n1 | 4.02 µM | 35.5 µM | 3.27 µM | 8.11 µM
36 | Cc1cc(Nc2cc(-c3ccccc3)[nH]n2)n2nc(SCc3ccc(Cl)cc3)nc2n1 | 8.26 µM | 31.8 µM | 3.95 µM | 6.71 µM
37 | C#CCSc1nc2nc(C)cc(Nc3cc(-c4ccccc4)[nH]n3)n2n1 | 21.8 µM | 45.7 µM | 13.4 µM | > 50 µM
